These results are taken from PubChem BioAssay (NCI).

“And” between values parts separate entries of the source, which are not always exact repeats. Equal entries are not always repeated.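 Interpolation was linear, between the two tested concentrations surrounding the appropriate level; five concentrations were tested over 48 hours in 96-well plates. GI50 marks 50% less growth. Definition used: TGI = concentration required for complete inhibition of growth.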

This test concerns MDA-MB-468 breast. Description: NCI-60 cell line screen, 48 h.
In the case of `O=C(Nc1ccc2[nH]nc(-c3ccncc3)c2c1)[C@@H]1CCN(CC(=O)N2CCN(c3ccc(-c4ncccn4)cc3)CC2)C1`, the GI50 was over 100000 nM and the TGI is over 100000 nM.

Consider `COc1cc(OC)c(S(N)(=O)=O)cc1C(=O)/C=C/c1ccccc1`, for which the GI50 was 1200 nM and the TGI came out at 9280 nM. Turning to `CN(c1ncccc1CNc1nc(Nc2ccc3c(c2)CC(=O)N3)ncc1C(F)(F)F)S(C)(=O)=O`, the GI50 is 1830 nM and 1620 nM; the TGI was 4040 nM and 4840 nM. As to `CCOC(=O)c1cc(C(=O)c2cc(OC)c(OC)c(OC)c2)n2ncccc12`, the GI50 is 248 nM and the TGI was 32200 nM. Consider `CCN(CC)c1ccc(/C=N/NC(=O)CSc2nc3ccccc3c(=O)n2CCc2ccc(S(N)(=O)=O)cc2)c(O)c1`, for which the GI50 was 2120 nM and the TGI was over 100000 nM. Taken in the same sequence, the figures for `NS(=O)(=O)c1ccc(Nc2cc(-c3cccc(O)c3)[nH]n2)cc1` were 9580 nM and over 25000 nM. For `CC(C)(C)c1ccc(S(=O)(=O)Oc2ccc3c4c(c(=O)oc3c2)CCCCC4)cc1` the same measures were 3410 nM and over 100000 nM. In the case of `Nc1nccc(-c2c(-c3ccc(F)cc3)ncn2C2CCNCC2)n1`, the GI50 was 649 nM and 2520 nM; the TGI was > 10800 nM and 11500 nM.

`CS(=O)(=O)Nc1cncc(-c2ccc3ncnc(Nc4ccc(F)c(Cl)c4)c3c2)c1`: the GI50 is 181 nM and the TGI amounted to 936 nM. As for `OCCN1CCN(CCCN2c3ccccc3Sc3ccc(Cl)cc32)CC1`, the GI50 is 1270 nM and the TGI was 2700 nM. For `O=C(CCCCCCNC(=O)C(O)(O)C(F)(F)F)Nc1ccc(Cl)cc1` the same measures were 1380 nM and 22200 nM. For `COc1ccc(/C=C/C(=O)c2cc(OC)c(OC)c(OC)c2)cc1OCC(=O)Nc1nc2ccc(OC(F)(F)F)cc2s1` the same measures were 3520 nM and 21200 nM.

On to `CCN1C(=S)N(c2ccccc2)C2NC(=S)N(/N=C/C=C/c3ccccc3OC)C21` (stereo not drawn), for which the GI50 was 292 nM and the TGI turned out to be 1060 nM. Taken in the same sequence, the figures for `Cc1nc([P+](c2ccccc2)(c2ccccc2)c2ccccc2)c(Sc2sc(-c3ccccc3)nc2[P+](c2ccccc2)(c2ccccc2)c2ccccc2)o1` were 417 nM and 3280 nM. For `Cc1cc2nc3c4cc(O)ccc4n(CCN(C)C)c3nc2cc1C` the same measures were 816 nM and 2780 nM. Taken in the same sequence, the figures for `O=Nc1ccc(O)c(=O)cc1` were 739 nM and 2440 nM. For the compound `CCCCCCNC(=O)Oc1ccc(/C(=C(/C)c2ccc(OC)cc2)c2ccc(OCCN3CCCCCC3)cc2)cc1`, the GI50 was 2040 nM and the TGI is 4760 nM. For `COc1ccc(C2=N[C@@H](Cc3ccccc3)C(=O)Nc3ccsc32)cc1`, the GI50 is 1760 nM and the TGI was 4580 nM. For `C/C(=N\NC(=S)N1CCCCC1)c1ccccn1`, the GI50 was under 10 nM and the TGI turned out to be 135 nM.

Turning to `CCN(Cc1ccc(C)cc1)c1ccc(CO)c(Cl)c1`, the GI50 was 16.9 nM and the TGI turned out to be 44.5 nM. As for `Cc1cc(O)c(=O)cc2c1C[C@H]1CC(C)(C)/C=C/C[C@]3(C)Oc4cc(=O)c(O)cc(C)c4C[C@H]3C[C@H](O)[C@@]1(C)O2`, the GI50 was < 15.2 nM and 7.03 nM; the TGI was 243 nM and 106 nM.

With `CCOC(=O)c1ccc(NC(=O)Nc2nncs2)cc1`, the GI50 is 176 nM and the TGI came to 14800 nM. For `COc1cc(/C=C\c2cc(OC)c(OC)c(OC)c2)cc(N/C=C\C(=O)c2ccc(OC(F)(F)F)cc2)c1OC`, the GI50 is 3160 nM and the TGI is over 100000 nM. Taken in the same sequence, the figures for `CC(N)C(Cc1ccc(Cl)cc1)c1ccc(Cl)cc1` (stereo not drawn) were 2960 nM and 11700 nM. As to `CC(=O)c1ccc2c(c1)c1cc(C(C)=O)ccc1n2CCNC(C)C`, the GI50 was 330 nM and the TGI amounted to 1740 nM. Taken in the same sequence, the figures for `O=S(=O)(NCCCNc1nccc(-c2c(-c3ccc(O)cc3)nc3sccn23)n1)c1ccc(F)cc1` were 2000 nM and 9430 nM.

For the compound `COc1ccc(C2CC(c3cccc(Nc4ccnc5cc(Cl)ccc45)c3)=NN2C=O)cc1` (stereo not drawn), the GI50 is 239 nM and the TGI was 836 nM. Take `CC(=O)O[C@H]1C(=O)[C@@]2(C)C(C(OC(=O)c3ccccc3)[C@]3(O)C[C@H](OC(=O)C(OC(=O)CCCC(=O)NCCCN(C)C)C(NC(=O)c4ccccc4)c4ccccc4)C(C)=C1C3(C)C)C1(OC(C)=O)COC1C[C@@H]2O` (stereo partly drawn): the GI50 is under 10 nM and the TGI was determined as 10400 nM. Taken in the same sequence, the figures for `CC(=O)Nc1ccc2c(c1)C(c1ccccc1Cl)=Nc1c(n[nH]c1C)N2` were 1630 nM and over 25000 nM. Take `COc1cc(C2Cc3ncccc3-c3[nH]c(=O)c4cccnc4c32)cc(OC)c1OC` (stereo not drawn): the GI50 is 340 nM.

With `Fc1cccc(COc2ccc(Nc3ncnc4sc(-c5cccs5)cc34)cc2Cl)c1`, the GI50 was 201 nM and the TGI came out at 2310 nM. For `C#Cc1nc(/C=C/C(=O)c2nccn2C)cs1` the same measures were 470 nM and 1470 nM. Taken in the same sequence, the figures for `C=C1CC[C@@H]2[C@](C)(COC(C)=O)[C@H](OC(C)=O)CC[C@@]2(C)[C@@H]1CC(Nc1ccc(S(=O)(=O)NC(C)=O)cc1)C1=CCOC1=O` (stereo partly drawn) were 1530 nM and 3130 nM. For `CCSCC1CC(O)(c2ccccc2)CC(c2ccc(F)cc2)O1` (stereo not drawn) the same measures were 2040 nM and 6050 nM. As to `Fc1cc2[nH]ncc2c2c3c(c(-c4cn[nH]c4C(F)(F)F)nc12)CCCC3`, the GI50 was 1580 nM and the TGI was 4350 nM. Taken in the same sequence, the figures for `Cc1nc2ccc(Nc3nc(Cl)nc(N4CCOCC4)n3)cc2n1Cc1ccccc1` were 2210 nM and 7090 nM. For `CCC(C)[C@H]1O[C@]2(CC[C@@H]1C)C[C@@H]1C[C@@H](C/C=C(\C)[C@@H](OC3C[C@H](OC)C(O[C@H]4C[C@H](OC)[C@@H](O)[C@H](C)O4)[C@H](C)O3)[C@@H](C)/C=C/C=C3\CO[C@@H]4[C@H](O)C(C)=C[C@@H](C(=O)O1)[C@]34O)O2` (stereo partly drawn) the same measures were 1600 nM and 3400 nM. Taken in the same sequence, the figures for `COC[C@@H](N=C1NC(=O)/C(=C/c2ccc3ncccc3c2)S1)c1ccccc1` were 4510 nM and 17600 nM.

With `Cc1cccc(N(C)C(=O)[C@@H]2[C@H](O)CCN2c2nc(C)cc(C(F)(F)F)c2C#N)c1`, the GI50 was 17300 nM and the TGI amounted to 51300 nM. With `N#Cc1c(-n2c(Br)c(Br)c3cc(Br)ccc32)[nH]c2c(Br)cc(Br)cc12`, the GI50 is 907 nM and the TGI stood at 3340 nM. Taken in the same sequence, the figures for `O=C(Cc1ccc(/C=C/C(=O)c2ncc[nH]2)cc1)Nc1ccc(F)cc1` were 974 nM and 3140 nM. Taken in the same sequence, the figures for `O=c1c2c(=NCCN3CCCC3)cc3c(=O)n(CCCN4CCOCC4)c(=O)c4c(-c5ccc(CN6CCCC6)cc5)cc(c(O)n1CCCN1CCOCC1)c2c4-3` were 32.4 nM and 119 nM.
